In US20080234297A1, “HSP90 Inhibitors Containing a Zinc Binding Moiety” (priority 2007, published 2008):

Key:
[1] = system: HDAC (HeLa nuclear extract); assay: HDAC fluorimetric assay kit (AK-500, Biomol), inhibition of HDAC enzymatic activity; type: biochemical; details: Fluor de Lys substrate, graded IC50
Experimental: (b) An In Vitro Assay which Determines the Ability of a Test Compound to Inhibit HDAC Enzymatic Activity.
HDAC inhibitors were screened using an HDAC fluorimetric assay kit (AK-500, Biomol, Plymouth Meeting, Pa.). Test compounds were dissolved in dimethylsulphoxide (DMSO) to give a 20 mM working stock concentration. Fluorescence was measured on a WALLAC Victor 2 plate reader and reported as relative fluorescence units (RFU). Data were plotted using GraphPad Prism (v4.0a) and IC50's calculated using a sigmoidal dose response curve fitting algorithm. Each assay was setup as follows: Defrosted all kit components and kept on ice until use. Diluted HeLa nuclear extract 1:29 in Assay Buffer (50 mM Tris/Cl, pH 8.0, 137 mM NaCl, 2.7 mM KCl, 1 mM MgCl2). Prepared dilutions of Trichostatin A (TSA, positive control) and tested compounds in assay buffer (5× of final concentration). Diluted Fluor de Lys™ Substrate in assay buffer to 100 uM (50 fold=2× final). Diluted Fluor de Lys™ developer concentrate 20-fold (e.g. 50 μl plus 950 μl Assay Buffer) in cold assay buffer. Second, diluted the 0.2 mM Trichostatin A 100-fold in the 1× Developer (e.g. 10 μl in 1 ml; final Trichostatin A concentration in the 1× Developer=2 μM; final concentration after addition to HDAC/Substrate reaction=1 μM). Added Assay buffer, diluted trichostatin A or test inhibitor to appropriate wells of the microtiter plate. Added diluted HeLa extract or other HDAC sample to all wells except for negative controls. Allowed diluted Fluor de Lys™ Substrate and the samples in the microtiter plate to equilibrate to assay temperature (e.g. 25 or 37° C. Initiated HDAC reactions by adding diluted substrate (25 μl) to each well and mixing thoroughly. Allowed HDAC reactions to proceed for 1 hour and then stopped them by addition of Fluor de Lys™ Developer ([…]). Incubated plate at room temperature (25° C.) for 10-15 min. Read samples in a microtiter-plate reading fluorimeter capable of excitation at a wavelength in the range 350-380 nm and detection of emitted light in the range 440-460 nm.
(§1) The following TABLE B lists compounds representative of the invention and their activity in HDAC and HSP90 assays. In these assays, the following grading was used: I≧10 μM, 10 μM>II>1 μM, 1 μM>III>0.1 μM, and IV≦0.1 μM for IC50.

HSP90 = assay: Hsp90 chaperone assay (refolding of heat-denatured luciferase); type: biochemical; details: luminescence readout, graded IC50
Experimental: (a) An In Vitro Assay which Determines the Ability of a Test Compound to Inhibit Hsp90 Chaperone Activity.
The Hsp90 chaperone assay was performed to measure the ability of HSP90 protein to refold the heat-denatured luciferase protein. HSP90 was first incubated with different concentrations of test compounds in denaturation buffer (25 mM Tris, pH7.5, 8 mM MgSO4, 0.01% bovine gamma globulin and 10% glycerol) at room temperature for 30 min. Luciferase protein was added to denaturation mix and incubated at 50° C. for 8 min. The final concentration of HSP90 and luciferase in denaturation mixture were 0.375 μM and 0.125 μM respectively. A 5 μl sample of the denatured mix was diluted into 25 μl of renaturation buffer (25 mM Tris, pH7.5, 8 mM MgSO4, 0.01% bovine gamma globulin and 10% glycerol, 0.5 mM ATP, 2 mM DTT, 5 mM KCl, 0.3 μM HSP70 and 0.15 μM HSP40). The renaturation reaction was incubated at room temperature for 150 min, followed by dilution of 10 μl of the renatured sample into 90 μl of luciferin reagent (Luclite, PerkinElmer Life Science). The mixture was incubated at dark for 5 min before reading the luminescence signal on a TopCount plate reader (PerkinElmer Life Science).
as §1

Compound	IC50 [1] [µM]	IC50 (HSP90) [µM]	melting point
C#CCCCn1c(Sc2cccc(C(=O)NO)c2)nc2c(N)ncnc21 [Compound 13]	≥ 10	≥ 10	
C#CCCCn1c(Sc2cccc(OCCCCCC(=O)NO)c2)nc2c(N)ncnc21 [Compound 18, 6-(3-(6-amino-9-(pent-4-ynyl)-9H-purin-8-ylthio)phenoxy)-N-hydroxyhexanamide]	≤ 0.1	≥ 10	
Nc1nccc2c1nc(Sc1cc3c(cc1Br)OCO3)n2CCCCCCC(=O)NO [Compound 35, 7-(4-amino-2-(6-bromobenzo[d][1,3]dioxol-5-ylthio)-1H-imidazo[4,5-c]pyridin-1-yl)-N-hydroxyheptanamide]	≤ 0.1	1 to 10	
Nc1ncnc2c1nc(Sc1cc3c(cc1Cl)OCO3)n2CCCCCCC(=O)NO [Compound 31, 7-(6-amino-8-(6-chlorobenzo[d][1,3]dioxol-5-ylthio)-9H-purin-9-yl)-N-hydroxyheptanamide]	≤ 0.1	1 to 10	
Nc1ncnc2c1nc(Sc1cc3c(cc1Br)OCO3)n2CCNCCC(=O)NO [Compound 20, 3-(2-(6-amino-8-(6-bromobenzo[d][1,3]dioxol-5-ylthio)-9H-purin-9-yl)ethylamino)-N-hydroxypropanamide]	≥ 10	0.1 to 1	
Nc1nccc2c1nc(Sc1cc3c(cc1I)OCO3)n2CCCCCCC(=O)NO [Compound 36, 7-(4-amino-2-(6-iodobenzo[d][1,3]dioxol-5-ylthio)-1H-imidazo[4,5-c]pyridin-1-yl)-N-hydroxyheptanamide]	≤ 0.1	0.1 to 1	
Nc1ncnc2c1nc(Sc1cc3c(cc1Br)OCO3)n2CCNCC(=O)NO [Compound 33]	≥ 10	0.1 to 1	
Nc1ncnc2c1nc(Sc1cc3c(cc1Br)OCO3)n2CCNCCCCCCCC(=O)NO [Compound 41, 8-(2-(6-amino-8-(6-bromobenzo[d][1,3]dioxol-5-ylthio)-9H-purin-9-yl)ethylamino)-N-hydroxyoctanamide]	≤ 0.1		
C#CCCCn1c(Sc2cccc(OCC(=O)NO)c2)nc2c(N)ncnc21 [Compound 14, 2-(3-(6-amino-9-(pent-4-ynyl)-9H-purin-8-ylthio)phenoxy)-N-hydroxyacetamide]	0.1 to 1		
Nc1nccc2c1nc(Sc1cc3c(cc1Cl)OCO3)n2CCCCCCC(=O)NO [Compound 34, 7-(4-amino-2-(6-chlorobenzo[d][1,3]dioxol-5-ylthio)-1H-imidazo[4,5-c]pyridin-1-yl)-N-hydroxyheptanamide]	≤ 0.1	1 to 10	
Nc1ncnc2c1nc(Sc1cc3c(cc1I)OCO3)n2CCNCCCCCC(=O)NO [Compound 38, 6-(2-(6-amino-8-(6-iodobenzo[d][1,3]dioxol-5-ylthio)-9H-purin-9-yl)ethylamino)-N-hydroxyhexanamide]	0.1 to 1	0.1 to 1	
Nc1ncnc2c1nc(Sc1cc3c(cc1Br)OCO3)n2CCNCCCCCCC(=O)NO [Compound 24, 7-(2-(6-amino-8-(6-bromobenzo[d][1,3]dioxol-5-ylthio)-9H-purin-9-yl)ethylamino)-N-hydroxyheptanamide]	≤ 0.1	0.1 to 1	
Nc1ncnc2c1nc(Sc1cc3c(cc1I)OCO3)n2CCNCCCCCCC(=O)NO [Compound 39, 7-(2-(6-amino-8-(6-iodobenzo[d][1,3]dioxol-5-ylthio)-9H-purin-9-yl)ethylamino)-N-hydroxyheptanamide]	≤ 0.1	0.1 to 1	
Nc1ncnc2c1nc(Sc1cc3c(cc1I)OCO3)n2CCNCC(=O)NO [Compound 37]	≥ 10	0.1 to 1	
COc1ccc(I)c(Sc2nc3c(N)ncnc3n2CCCCCCC(=O)NO)c1 [Compound 12, 7-(6-amino-8-(2-iodo-5-methoxyphenylthio)-9H-purin-9-yl)-N-hydroxyheptanamide]	≤ 0.1		
Nc1ncnc2c1nc(Sc1cc3c(cc1I)OCO3)n2CCCCCCC(=O)NO [Compound 32, 7-(6-amino-8-(6-iodobenzo[d][1,3]dioxol-5-ylthio)-9H-purin-9-yl)-N-hydroxyheptanamide]	≤ 0.1	≤ 0.1	
C#CCCCn1c(Sc2cccc(OCCCC(=O)NO)c2)nc2c(N)ncnc21 [Compound 16, 4-(3-(6-amino-9-(pent-4-ynyl)-9H-purin-8-ylthio)phenoxy)-N-hydroxybutanamide]	≤ 0.1	≥ 10	

The remaining lines, values ahead:

IC50 [1] [µM]	IC50 (HSP90) [µM]	melting point	Compound
		230 °C (dec.)	Nc1ncnc2c1nc(Sc1cc3c(cc1Br)OCO3)n2CC(=O)NO [Compound 1, 2-(6-amino-8-(6-bromobenzo[d][1,3]dioxol-5-ylthio)-9H-purin-9-yl)-N-hydroxyacetamide]
0.1 to 1	0.1 to 1		Nc1ncnc2c1nc(Sc1cc3c(cc1Br)OCO3)n2CCCCCC(=O)NO [Compound 5, 6-(6-amino-8-(6-bromobenzo[d][1,3]dioxol-5-ylthio)-9H-purin-9-yl)-N-hydroxyhexanamide]
1 to 10	≥ 10		Nc1ncnc2c1nc(Sc1cc3c(cc1Br)OCO3)n2CCOCCCCCC(=O)NO [Compound 29, 6-(2-(6-amino-8-(6-bromobenzo[d][1,3]dioxol-5-ylthio)-9H-purin-9-yl)ethoxy)-N-hydroxyhexanamide]
≥ 10	≥ 10		Nc1ncnc2c1nc(Sc1cc3c(cc1Br)OCO3)n2CCOCCCC(=O)NO [Compound 27, 4-(2-(6-amino-8-(6-bromobenzo[d][1,3]dioxol-5-ylthio)-9H-purin-9-yl)ethoxy)-N-hydroxybutanamide]
≤ 0.1	0.1 to 1		Nc1ncnc2c1nc(Sc1cc3c(cc1Br)OCO3)n2CCNCCCCCC(=O)NO [Compound 23, 6-(2-(6-amino-8-(6-bromobenzo[d][1,3]dioxol-5-ylthio)-9H-purin-9-yl)ethylamino)-N-hydroxyhexanamide]
≤ 0.1	≥ 10		Nc1ncnc2c1nc(Sc1cc3c(cc1Br)OCO3)n2CCOCCCCCCC(=O)NO [Compound 30, 7-(2-(6-amino-8-(6-bromobenzo[d][1,3]dioxol-5-ylthio)-9H-purin-9-yl)ethoxy)-N-hydroxyheptanamide]
≤ 0.1	0.1 to 1		Nc1ncnc2c1nc(Sc1cc3c(cc1Br)OCO3)n2CCCCCCC(=O)NO [Compound 6, 7-(6-amino-8-(6-bromobenzo[d][1,3]dioxol-5-ylthio)-9H-purin-9-yl)-N-hydroxyheptanamide]
≥ 10	≥ 10		Nc1ncnc2c1nc(Sc1cc3c(cc1Br)OCO3)n2CCOCC(=O)NO [Compound 40]
1 to 10	≥ 10		Nc1ncnc2c1nc(Sc1cc3c(cc1Br)OCO3)n2CCOCCCCC(=O)NO [Compound 28, 5-(2-(6-amino-8-(6-bromobenzo[d][1,3]dioxol-5-ylthio)-9H-purin-9-yl)ethoxy)-N-hydroxypentanamide]
